According to patent US20100129344A1, “MEDICAL USES AND THERAPIES BASED UPON THE ACTION OF AZUROCIDIN ON IGFBP-1” (priority 2005, published 2010):
Entries after “also recorded” stand apart in the source; their conditions may differ. Read-outs that look alike come from different tables or passages of the source. Where a SMILES comes first, the peptide text is derived from it. [ ]: non-standard residue; d: D form. The star is where a group is joined. Sta = CC(C)C[C@H](N)[C@@H](O)CC(=O)O; Isovaleryl = CC(C)CC(=O)*

Tests used:
[1] = test system: urinary protease activity at neutral pH (IGFBP-1 proteolysis); experiment: Effect of protease inhibitors, divalent cations and peptides on urinary protease activity at neutral pH (radioiodinated npIGFBP-1, SDS-PAGE, autoradiography); format: biochemical, human; details: for effect on proteolysis in urine: not shown; for effect of peptides on IGFBP-1 proteolysis: increasing concentrations pre-incubated with npIGFBP-1 30 min 22 C, then 0.5 μl urine 2 h 37 C (FIG. 8A)
Protocol: A: Effect of 100 μM pepstatin A, 10 μM E64, 2.5 mM leupeptin, 10 mM PMSF, 100 μM aprotinin, 2.5 mM kallikrein inhibitor and benzamidine (mM) and chymostatin (μM). Molecular mass markers are indicated by the arrows. B: Densitometry measurements of intact IGFBP-1. The results are the mean±SEM, pooled from 6-8 experiments. […] The mean effect of urine pooled from all the experiments is shown in the open bar. *, P<0.05; ** P<0.01 (paired t-test);
(§1) Urine, 0.5 μl, was added and the incubation continued for 2 h at 37 C. The fragments were separated by 14% SDS-PAGE and detected by autoradiography. Molecular mass markers are indicated by the arrows. B: Biotinylated recombinant pIGFBP-1 was bound to streptavidin coated plates and then incubated without (open squares) or with 100 ng IGF-I (closed circles) or des(1-3)IGF-I (open circles). Wells were then incubated with increasing concentration of partially purified azurocidin at […] for 2-h at 37 C. After acidification of all wells, including controls, with 1 M HCl to dissociate bound peptides, radioiodinated IGF-I was added for 2 h at 22 C, unbound tracer was removed by washing, and the bound counts determined;
IGFBP-1 was radioiodinated with ^125I using the chloramine T method. After incubation without and with protease in phosphate buffered saline, pH 7 at 37 C, fragments were separated on 14% non-reducing SDS-PAGE, the gel dried, and visualized by autoradiography.

[2] = test system: acid-activated IGFBP-1 protease activity in human urine; experiment: Effect of pepstatin on urinary IGFBP-1 protease activity at pH 2 (streptavidin plate, IGF-II binding); format: biochemical; details: pepstatin A 10 μM, pH 2, 5 μl urine, 2 h, 37 C
Protocol: (§2) A-D: Radioiodinated recombinant npIGFBP-1 was subjected to 14% SDS-PAGEalone (*) or after proteolysis for 2 h at 37 C with 0.5 μl urine or 0.25 μl eluate, and the fragments detected by autoradiography. Molecular mass markers are indicated by the arrows. A: pH-dependence of urinary IGFBP-1 protease activity. B: Urine, flowthrough (FT) from the heparin affinity column, and eluate at pH 2 and 7. C: pHdependence of eluate from heparin affinity chromatography. D: Acid-activated protease activity is destroyed by neutralization. Radioiodinated pIGFBP-1 was incubated without (*) and with 0.5 μl urine for 2 h at 37 C at pH 2. Prior to incubation the urine was either untreated (lane a), adjusted to pH 2 for 15 min (lane B) or adjusted to pH 2 for 15 min and then to pH 7 for a further 15 min (lane C). E: Effect of pepstatin. […] The wells were washed, incubated with radioiodinated IGF-II for 2 h at 22 C, washed, and the bound counts detected;
(§3) IGFBP-1 was biotinylated with sulfo-NHS-LC-LC-biotin and bound to streptavidin coated plates, then incubated without and with protease in phosphate buffered saline, pH 7 at 37 C. After washing, IGF-binding fragments were determined by incubation with radioiodinated IGF-I for 2 h at 22 C. Unbound tracer was removed by washing, and the bound counts determined.

[3] = test system: neutral IGFBP-1 protease activity in human urine; experiment: Effect of pepstatin on urinary IGFBP-1 protease activity at pH 7 (streptavidin plate, IGF-II binding); format: biochemical; details: pepstatin A 10 μM, pH 7, 5 μl urine, 2 h, 37 C
Protocol: as §2, §3

[4] = test system: MCF-7 human breast cancer cells; experiment: 3H-Thymidine incorporation; format: cell-based; details: IGF-II 10 ng/ml, 24 h, serum-free; 6 experiments
Protocol: Cell studies. MCF-7 human breast cancer cells were maintained in MEM alpha ribonucleic acid-free medium supplemented with 10% foetal bovine serum, 50 Unit/ml penicillin sodium, 50 μg/ml streptomycin sulfate and 2 mM L-glutamine at 37C in 5% CO2 humidified environment.
3H-Thymidine incorporation: Experiments were carried out in 48-well plates, at 70% confluence. After a 20-h incubation in serum-free medium supplemented with 0.1% BSA, the experimental conditions were added for a further 24 h, with ^3H-thymidine (1 μCi/ml) added for the last 4 h. Cells were then washed with ice-cold 0.9% NaCl three times and incubated with ice-cold 5% TCA for 15 min at 22 C. The fixed nucleotides were solubilized in 0.1M NaOH at 22 C and subjected to liquid scintillation counting.
Statistical analyses. The effect of IGF-II and IGFBP-1 in muscle cell culture was analyzed by two-way ANOVA. Where significant differences were observed, comparisons were made using the Tukey test. In the study using MCF-7 breast cancer cells the Wolcoxon Matched Pairs test was used. Statistical significance was set at P<0.05.

[5] = test system: primary human skeletal myotubes; experiment: 2-Deoxyglucose transport (glucose uptake); format: cell-based; details: IGF-II 10 ng/ml (submaximal), 90 min
Protocol: Primary human skeletal myotubes were incubated under serum-free conditions for 24 h. Glucose uptake was determined as described in the Methods. The results are the mean±SEM of four experiments using cells from different individuals each with 3 replicates; and are expressed as the percentage of uptake in the absence of IGF-II or IGFBP-1 for each. The effect of IGF-II is shown in the hatched bars. The effect of pIGFBP-1 on stimulation of glucose uptake by 10 ng/ml IGF-II was analyzed by 2-way ANOVA for each of the 20 ng/ml and 80 ng/ml concentrations; *, P<0.01, **, P<0.001, compared to no IGF-II; ††, P<0.001, compared to no IGFBP-1 or intact IGFBP-1. […]
2-Deoxyglucose transport: Glucose uptake was performed as previously described for primary human muscle cells (Bouzakri et al, Diabetologia, 47, 1314-1323, 2004). […] Cells were then washed four times with pre-warmed buffer (150 mmol/l NaCl, […] KCl, 1.2 mmol/l MgSO4, 1.2 mmol/l CaCL2, 2.5 mmol/l NaH2PO4, 10 mmol/l HEPES, pH 7.4) and glucose uptake was measured for 15 min using [3H]2-deoxyglucose (50 μmol/l, 14,800 Bq/well). Results were expressed as the percentage of glucose uptake in the absence of IGF-II or IGFBP-1.
Statistical analyses. The effect of IGF-II and IGFBP-1 in muscle cell culture was analyzed by two-way ANOVA. […]

[6] = test system: azurocidin-dependent protease activity; experiment: Azurocidin-dependent protease activity on plate-bound biotinylated pIGFBP-1 with pre-bound peptides; format: biochemical, human; details: 100 ng peptide on plate-bound pIGFBP-1, partially purified azurocidin, 2 h, 37 C (FIG. 8B)
Protocol: as §1, §3

[7] = 10 mM cation, pH 7, 0.5 μL urine, 2 h, 37 C

c1cnc2c(c1)ccc1cccnc12 [1,10-phenothroline]
effect on the degree of IGFBP-1 degradation ([1]; data not shown): no effect

[Ca+2].[Cl-].[Cl-] [CaCl2]
effect of divalent metal cations on proteolysis (densitometry of intact IGFBP-1) [1, 7]: significant promoting effect

[Cl-].[Cl-].[Co+2] [CoCl2]
effect of divalent metal cations on proteolysis (densitometry of intact IGFBP-1) ([1]; pH 7): inhibited

[Cl][Cu][Cl] [CuCl2]
effect of divalent metal cations on proteolysis (densitometry of intact IGFBP-1) [1, 7]: inhibited

O=C(O)CN(CCN(CC(=O)O)CC(=O)O)CC(=O)O [EDTA]
effect on the degree of IGFBP-1 degradation [1]: no effect

O=C(O)CN(CCOCCOCCN(CC(=O)O)CC(=O)O)CC(=O)O [EGTA]
effect on the degree of IGFBP-1 degradation ([1]; data not shown): no effect

[Cl][Ni][Cl] [NiCl2]
effect of divalent metal cations on proteolysis (densitometry of intact IGFBP-1) [1, 7]: inhibited

O=S(=O)(F)Cc1ccccc1 [PMSF]
effect on protease activity in urine ([1]; 10 mM, pH 7, 0.5 μL urine, 2 h, 37 C): inhibited

Cc1ccc(S(=O)(=O)N[C@@H](CCCCN)C(=O)CCl)cc1 [TLCK]
effect on proteolysis in urine ([1]; concentration not given): did not

Cc1ccc(S(=O)(=O)N[C@@H](Cc2ccccc2)C(=O)CCl)cc1 [TPCK]
effect on proteolysis in urine ([1]; 1 mM): inhibited

CC(C)C[C@H](NC(=O)[C@@H](NC(=O)N[C@@H](Cc1ccccc1)C(=O)O)[C@@H]1CCN=C(N)N1)C(=O)N[C@H](C=O)Cc1ccccc1 [chumostatin]
effect on protease activity in urine ([1]; 10 μM, pH 7, 0.5 μL urine, 2 h, 37 C): inhibited

CC(C)CC(=O)N[C@H](C(=O)N[C@H](C(=O)N[C@@H](CC(C)C)[C@@H](O)CC(=O)N[C@@H](C)C(=O)N[C@@H](CC(C)C)[C@@H](O)CC(=O)O)C(C)C)C(C)C [pepstatin, pepstatin A] (Isovaleryl-VV[Sta]A[Sta]-OH)
effect on acid-activated urinary IGFBP-1 protease activity [2]: inhibits | effect on neutral urinary IGFBP-1 protease activity [3]: not the neutral activity

IGF-I: recombinant human insulin-like growth factor I
effect of peptides on IGFBP-1 proteolysis [1]: Partial inhibition

IGF-II: human insulin-like growth factor II
effect of peptides on IGFBP-1 proteolysis [1]: Partial inhibition | stimulation of 3H-thymidine incorporation [4]: 2 fold | stimulation of glucose uptake [5]: more than 2 fold

aprotinin
effect of aprotinin on protease activity (IGFBP-1 proteolysis) ([1]; 100 μM aprotinin (FIG. 7A), pH 7, different experiments): either without effect, or even promoted protease activity; also recorded: increasing IGFBP-1 proteolysis

cyclohexylacetyl-Phe-Arg-Ser-Val-Gln [kallikrein inhibitor]
effect on protease activity in urine ([1]; 100 μM, pH 7, 0.5 μL urine, 2 h, 37 C): inhibited

des(1-3)-IGF-I: truncated IGF-I from GroPep
effect of peptide on IGFBP-1 proteolysis [6]: no effect

insulin
effect of peptides on IGFBP-1 proteolysis [1]: no effect
